The text below walks through data of ChEMBL document CHEMBL6115010, “Targeting glioma with heteroaromatic alkaloids: A review of potential therapeutics” (Bioorg Med Chem, 2025).

In brackets after ≈: the same amount, converted by molar mass.

In general, IC50 refers to the concentration that gives 50% inhibition. As usually defined, the MTD is the highest dose tested that stayed within the study's limit of toxicity. What is called GI50 is the concentration giving 50% growth inhibition. The low end stands for more potent growth inhibition, the high end for less potent growth inhibition.

One data set relates to SW1088. In words: Cytotoxicity against human SW1088 cells assessed as reduction in cell growth incubated for 24 hrs by MTT colorimetric assay. The settings on record: SW1088, 24 h. The format is functional, cell-based. (Tetrazolium assays rely on reduction of a dye to a coloured formazan, in cell work by metabolically active cells.)
A short description of data set [1]: Toxicity in ip dosed B6D2F1 mouse assessed as maximum tolerated dose measured after 28 days. The settings on record: in vivo, time 28 day. It is filed as organism-based.
Data set [2] can be described thus: Cytotoxicity against human U373 MG cells assessed as reduction in cell growth incubated for 24 hrs by MTT colorimetric assay. It is filed as functional, cell-based, U-373MG ATCC.
In the next data set the test system is GAMG. In words: Antiproliferative activity against human GAMG cells assessed as reduction in cell viability incubated for 48 hrs by MTS reagent based assay. The format is functional.
Data set [3] relates to U-87 MG. Put plainly: Cytotoxicity against human U-87 MG cells by resazurin dye based assay. The format is functional, cell-based, U-87MG ATCC.
Data set [4] in a line: Cytotoxicity against human U87MG.deltaEGFR cells by resazurin dye based assay. The format is functional, cell-based. For orientation: The colour change of resazurin is a common sign of viable cells or microbes.
Data set [5] is described as follows: Cytotoxicity against human CHG-5 cells assessed as reduction in cell viability incubated for 24 hrs by MTT assay. The settings on record: CHG-5, 24 h. It is filed as functional, cell-based.
Data set [6] can be described thus: Cytotoxicity against human SHG-44 cells assessed as reduction in cell viability incubated for 24 hrs by MTT assay. It is filed as functional, cell-based. The settings on record: SHG-44, 24 h.
Data set [7] relates to CCF-STTG1. In words: Cytotoxicity against human CCF-STTG1 cells assessed as reduction in cell viability incubated for 24 hrs by MTT assay. It is filed as functional, cell-based. The settings on record: CCF-STTG1, 24 h.
Data set [8] has as its system U-251. In words: Cytotoxicity against human U-251MG cells assessed as reduction in cell viability incubated for 24 hrs by MTT assay. The settings on record: U-251, 24 h. The format is functional, cell-based.
Another data set relates to T98G. In words: Growth inhibition of human T98G cells measured after 72 hrs by MTT assay. The format is functional.
The nature of data set [9]: Growth inhibition of human U373 MG cells measured after 72 hrs by MTT assay. The format is functional, U-373MG ATCC.
Data set [10] deals with U-87 MG. Put plainly: Growth inhibition of human U-87 MG cells measured after 72 hrs by MTT assay. It is filed as functional, U-87MG ATCC.
Another data set concerns Hs68. In words: Growth inhibition of human Hs68 cells measured after 72 hrs by MTT assay. It is filed as functional.
Data set [11] can be described thus: Cytotoxicity against HEK293T cells assessed as reduction in cell viability incubated for 72 hrs by MTS assay. The settings on record: human. The format is toxicity, cell-based, HEK-293T.
Data set [12] in a line: Cytotoxicity against human CHG-5 cells assessed as reduction in cell growth incubated for 24 hrs by MTT assay. The format is functional, cell-based. The settings on record: CHG-5, 24 h.
The subject of data set [13] is CCF-STTG1. Put plainly: Cytotoxicity against human CCF-STTG1 cells assessed as reduction in cell growth incubated for 24 hrs by MTT assay. It is filed as functional, cell-based. The settings on record: CCF-STTG1, 24 h.
The subject of data set [14] is U-251. In words: Cytotoxicity against human U-251MG cells assessed as reduction in cell growth incubated for 24 hrs by MTT assay. The format is functional, cell-based. The settings on record: U-251, 24 h.
The nature of data set [15]: Cytotoxicity against human SHG-44 cells assessed as reduction in cell growth incubated for 24 hrs by MTT assay. It is filed as functional, cell-based. The settings on record: SHG-44, 24 h.
The nature of data set [16]: Cytotoxicity against human GSC-18 cells assessed as reduction in cell growth incubated for 72 hrs by MTS assay. The settings on record: GSC18, 72 h. The format is functional, cell-based.
Data set [17] in a line: Cytotoxicity against rat ASK cells assessed as reduction in cell growth by SRB assay. It is filed as functional. The settings on record: read-out: ED50 (the source's name).
Data set [18] in a line: Cytotoxicity against human GSC-3 cells assessed as reduction in cell growth incubated for 72 hrs by MTS assay. The settings on record: GSC-3, 72 h. The format is functional, cell-based.
The test system of data set [19] is U-87 MG. Put plainly: Antiproliferative activity against human U-87-MG cells. It is filed as functional, cell-based, U-87MG ATCC.

As to `O=C1c2c(O)ccnc2-c2nccc3c2c1nc1ccccc13`, the IC50 (with SW1088; in data set [2]) was 6000 nM each time. Also, the maximum tolerated dose (MTD) at 672 h in [1] was over 160 mg/kg.

On to `O=C1c2cccnc2-c2nccc3c2c1nc1cc(Br)ccc13`, for which the 50% inhibitory concentration (IC50) came out at 400 nM with SW1088 and 600 nM in data set [2]. Further, the maximal tolerated dose (MTD) at 672 h in data set [1] came to 20 mg/kg.

With `COC(=O)C1=CO[C@@H](C)[C@@H]2CN3CC[C@]4(C(=O)Nc5ccccc54)[C@@H]3C[C@H]12`, the half-maximal inhibitory concentration (IC50) in the data set on GAMG was 20.1 µM.

With `COc1cc(OC)c2c(=O)c3ccccc3n(C)c2c1`, the figures for the IC50 (in the data set on U-87 MG [3]; in data set [4]) were 17.6 µM and 8.88 µM, respectively.

Regarding `CC(=O)O[C@@H]1C2C3C[C@H]4C5=Nc6ccccc6[C@]51C[C@@H]2[N+]4([O-])[C@@H](C)[C@@H]3C=O` (some centres not stated), the half-inhibitory concentration (IC50) in [5] came to 12.9 µM; in [6], 11.8 µM; in the data set with CCF-STTG1 [7] it was 12.3 µM; in the data set with U-251 [8], 12.3 µM.

Turning to `C/C=C1\C2C[C@H]3C4=Nc5ccccc5[C@]45C[C@@H](C2[C@H]5OC(C)=O)[N+]3([O-])[C@H]1C` (some centres not stated), the concentration for half-maximal inhibition (IC50) in data set [5] was 15.8 µM; in data set [6], 17.4 µM; with CCF-STTG1 [7], 16.7 µM; in the data set with U-251 [8] it was 14.9 µM.

For `COc1c2c(cc3[nH]c4ccccc4c(=O)c13)OCO2`, the half-maximal inhibitory concentration (IC50) in the data set with U-87 MG [3] was 89.3 µM; in data set [4], 5.72 µM.

As for `CO[C@@H]1C=C[C@]23c4cc5c(cc4[C@@H](O)N(C[C@H]2O)[C@@H]3C1)OCO5`, the GI50 in the data set on T98G stood at 14 µM; in [9], 7 µM; in the data set on U-87 MG [10], 6 µM; in the data set with Hs68, 4 µM.

Take `COc1cc2c(cc1OC)[C@H](Cc1cc(O)c(OC)c(Oc3ccc(C=O)cc3)c1)N(C)CC2`: the half-inhibitory concentration (IC50) at 72 h in data set [11] was determined as 20 µg/mL (≈ 43.1 µM).

Turning to `COC(=O)N1CCc2cc3c(c4c2[C@@H]1Cc1ccc(OC)c(OC)c1-4)OCO3`, the IC50 worked out at 9.7 µM in [12], 9.2 µM with CCF-STTG1 [13], 11.3 µM with U-251 [14] and 11.3 µM in data set [15].

As to `COC(=O)N1CCc2cc(O)c(OC)c3c2[C@@H]1Cc1ccc(OC)c(O)c1-3`, the half-inhibitory concentration (IC50) in [12] worked out at 12.2 µM; in the data set with CCF-STTG1 [13], 10.4 µM; in the data set with U-251 [14] it was 11.9 µM; in data set [15], 11.9 µM.

As for `COc1cc2c(cc1Oc1c(C=O)ccc(OC)c1OC)cc1c3c(c(OC)c(OC)c(OC)c32)CCN1C`, the IC50 in [16] is 5.37 µg/mL (≈ 10.1 µM); in data set [18] it was 4.54 µg/mL (≈ 8.51 µM). For the same compound, the EC50 in [17] turned out to be 2.11 µg/mL (≈ 3.95 µM).

Turning to `COc1cc2c(cc1Oc1c(C=O)ccc(OC)c1OC)C(=O)c1nccc3c(OC)c(OC)c(OC)c-2c13`, the IC50 in [16] came out at 2.55 µg/mL (≈ 4.8 µM); in data set [18] it was 2.36 µg/mL (≈ 4.44 µM). For the same compound, the EC50 in [17] was 10.2 µg/mL (≈ 19.2 µM).

Take `CC(=O)O[C@@H]1C2C3C[C@H]4C5=Nc6ccccc6[C@]51C[C@@H]2[N+]4([O-])[C@@H](C)[C@@H]3C(=O)O` (some centres not stated): the IC50 turned out to be 12.1 µM in data set [5], 9.2 µM in [6], 11.4 µM with CCF-STTG1 [7] and 9.7 µM in the data set with U-251 [8].

Regarding `O[C@@H]1CN2Cc3cc4c(cc3C13C=C[C@H](O)C[C@@H]23)OCO4` (some centres not stated), the GI50 in the data set with T98G amounted to 9 µM; in data set [9] it was 38 µM; in the data set with U-87 MG [10], 9 µM; in the data set on Hs68 it was 11 µM.

With `O=C1c2cccnc2-c2nccc3c2c1nc1ccccc13` [ASCIDIDEMIN], the IC50 was found to be 600 nM in the data set on SW1088 and 500 nM in [2]. For the same compound, the MTD at 672 h in data set [1] was 40 mg/kg.

Regarding `O=P1(N(CCCl)CCCl)NCCCO1` (configuration not stated) [CYCLOPHOSPHAMIDE ANHYDROUS], the IC50 in the data set on GAMG was determined as 50.9 µM.

Consider `COc1cc2c(cc1OC)-c1c3c(cc4c1[C@H](C2)N(C)CC4)OCO3` [DICENTRINE], for which the IC50 in the data set with U-87 MG [19] was 4.73 µM.

With `CC[C@]1(O)C[C@H]2CN(CCc3c([nH]c4ccccc34)[C@@](C(=O)OC)(c3cc4c(cc3OC)N(C=O)[C@H]3[C@@](O)(C(=O)OC)[C@H](OC(C)=O)[C@]5(CC)C=CCN6CC[C@]43[C@@H]65)C2)C1` [VINCRISTINE], the IC50 in the data set with GAMG turned out to be 30.4 µM.
